From article PMC7211198, “Phase 1b study of a small molecule antagonist of human chemokine (C-C motif) receptor 2 (PF-04136309) in combination with nab-paclitaxel/gemcitabine in first-line treatment of metastatic pancreatic ductal adenocarcinoma” (Investigational New Drugs, 2019)

Test: Safety and tolerability (TEAEs, SAEs, DLTs, RP2D) in phase Ib study
Type: in vivo, human
Description: Safety assessments included collection of adverse events (AEs), serious AEs (SAEs), vital signs and physical examination, electrocardiogram (12-lead), laboratory assessments, including pregnancy test, and verification of concomitant treatments. A patient was considered as DLT-evaluable if the patient experienced a DLT or if otherwise, in the absence of a DLT, the patient received at least 85% of the planned doses of each study drug in the first 28-day cycle. DLTs were defined as any of the following events occurring in the first cycle of treatment (days 1 through 28) and attributed (i.e., judged to be at least possibly related) to the combination of PF-04136309 plus nab-paclitaxel/gemcitabine, where relationship with the combination could not be ruled out. DLTs were hematologic events of grade 4 neutropenia lasting >5 days; febrile neutropenia; grade ≥ 3 neutropenic infection; grade ≥ 3 thrombocytopenia with grade ≥ 2 bleeding; grade 4 thrombocytopenia; and nonhematologic events of grade 3 toxicities. Exceptions included nausea and vomiting responding to prophylaxis and/or treatment and lasting <7 days from each chemotherapy infusion period; diarrhea responding to treatment and lasting <7 days; grade 3 fatigue lasting <7 days; grade 3 QT interval corrected for heart rate prolongation (>500 msec) persisting after correction of any reversible causes; and/or grade 3 aspartate aminotransferase (AST) and/or alanine aminotransferase (ALT) increase lasting ≤7 days. All grade 4 toxicities and a delay of >2 weeks in receiving the next scheduled cycle due to persistent treatment-related toxicities were considered DLTs. AEs meeting DLT criteria in the dose-expansion phase included grade 3 events of diarrhea, hypokalemia, and dysesthesia and grade 4 hypoxia. […] AEs were graded according to the National Cancer Institute Common Terminology Criteria for Adverse Events, version 4.03.

[1] = 500 mg BID + nab-P/Gem, treatment-related SAE
[2] = 750 mg BID + nab-P/Gem, n = 4, treatment-related TEAE
[3] = 750 mg BID + nab-P/Gem, all-causality SAE
[4] = 750 mg BID + nab-P/Gem, all-causality TEAE

O=C(NCC(=O)N1CC[C@H](N[C@H]2CC[C@@](O)(c3ccc(-c4ncccn4)cn3)CC2)C1)c1cccc(C(F)(F)F)c1 [PF-04136309]
Any SAE, Grade 3 [1]: 3 (17.6) n (%) | Any SAE, Grade 4 [1]: 1 (5.9) n (%) | Any SAE, Grade 5 [1]: 1 (5.9) n (%) | Any SAE, Total [1]: 5 (29.4) n (%) | Hypoxia, Grade 1 [1]: 0 n (%) | Hypoxia, Grade 2 [1]: 0 n (%) | Hypoxia, Grade 3 [1]: 0 n (%) | Hypoxia, Grade 4 [1]: 1 (5.9) n (%) | Hypoxia, Grade 5 [1]: 0 n (%) | Hypoxia, Total [1]: 1 (5.9) n (%) | Pneumonia, Grade 1 [1]: 0 n (%) | Pneumonia, Grade 2 [1]: 0 n (%) | Pneumonia, Grade 3 [1]: 0 n (%) | Pneumonia, Grade 4 [1]: 0 n (%) | Pneumonia, Grade 5 [1]: 1 (5.9) n (%) | Pneumonia, Total [1]: 1 (5.9) n (%) | Pneumonitis, Grade 1 [1]: 0 n (%) | Pneumonitis, Grade 2 [1]: 0 n (%) | Pneumonitis, Grade 3 [1]: 3 (17.6) n (%) | Pneumonitis, Grade 4 [1]: 0 n (%) | Pneumonitis, Grade 5 [1]: 0 n (%) | Pneumonitis, Total [1]: 3 (17.6) n (%) | Pyrexia, Grade 1 [1]: 0 n (%) | Pyrexia, Grade 2 [1]: 1 (5.9) n (%) | Pyrexia, Grade 3 [1]: 0 n (%) | Pyrexia, Grade 4 [1]: 0 n (%) | Pyrexia, Grade 5 [1]: 0 n (%) | Pyrexia, Total [1]: 1 (5.9) n (%) | DLT events (500 mg BID starting dose, three of 17 patients, four DLTs): grade 3 dysesthesia, diarrhea, and hypokalemia and one event of grade 4 hypoxia | DLT (750 mg BID + nab-P/Gem, n = 4, first cycle (days 1 through 28)): 1 (25) n (%) | ALT increase, grade ≥3 [2]: 1 (25.0) n (%) | AST increase, grade ≥3 [2]: 1 (25.0) n (%) | Anemia, grade ≥3 [2]: 0 n (%) | Fatigue, grade ≥3 [2]: 0 n (%) | Leukopenia, grade ≥3 [2]: 3 (75.0) n (%) | Lymphopenia, grade ≥3 [2]: 1 (25.0) n (%) | Neutropenia, grade ≥3 [2]: 3 (75.0) n (%) | Pneumonitis, grade ≥3 [2]: 0 n (%) | Any SAE, Grade 1 [3]: 0 n (%) | Any SAE, Grade 2 [3]: 1 (25.0) n (%) | Any SAE, Grade 3 [3]: 2 (50.0) n (%) | Any SAE, Grade 4 [3]: 0 n (%) | Any SAE, Grade 5 [3]: 0 n (%) | Any SAE, Total [3]: 3 (75.0) n (%) | Appetite decrease, Grade 1 [3]: 0 n (%) | Appetite decrease, Grade 2 [3]: 0 n (%) | Appetite decrease, Grade 3 [3]: 1 (25.0) n (%) | Appetite decrease, Grade 4 [3]: 0 n (%) | Appetite decrease, Grade 5 [3]: 0 n (%) | Appetite decrease, Total [3]: 1 (25.0) n (%) | Cellulitis, Grade 1 [3]: 0 n (%) | Cellulitis, Grade 2 [3]: 0 n (%) | Cellulitis, Grade 3 [3]: 1 (25.0) n (%) | Cellulitis, Grade 4 [3]: 0 n (%) | Cellulitis, Grade 5 [3]: 0 n (%) | Cellulitis, Total [3]: 1 (25.0) n (%) | Cognitive disorder, Grade 1 [3]: 0 n (%) | Cognitive disorder, Grade 2 [3]: 0 n (%) | Cognitive disorder, Grade 3 [3]: 1 (25.0) n (%) | Cognitive disorder, Grade 5 [3]: 0 n (%) | Cognitive disorder, Total [3]: 1 (25.0) n (%) | Gastroesophageal reflux disease, Grade 1 [3]: 0 n (%) | Gastroesophageal reflux disease, Grade 2 [3]: 0 n (%) | Gastroesophageal reflux disease, Grade 3 [3]: 1 (25.0) n (%) | Gastroesophageal reflux disease, Grade 4 [3]: 0 n (%) | Gastroesophageal reflux disease, Grade 5 [3]: 0 n (%) | Gastroesophageal reflux disease, Total [3]: 1 (25.0) n (%) | Rash, Grade 1 [3]: 0 n (%) | Rash, Grade 2 [3]: 1 (25.0) n (%) | Rash, Grade 3 [3]: 0 n (%) | Rash, Grade 4 [3]: 0 n (%) | Rash, Grade 5 [3]: 0 n (%) | Rash, Total [3]: 1 (25.0) n (%) | ALT increase, Grade 1 [4]: 0 n (%) | ALT increase, Grade 2 [4]: 2 (50.0) n (%) | ALT increase, Grade 3 [4]: 1 (25.0) n (%) | ALT increase, Grade 4 [4]: 0 n (%) | ALT increase, Grade 5 [4]: 0 n (%) | ALT increase, Total [4]: 3 (75.0) n (%) | Alopecia, Grade 1 [4]: 2 (50.0) n (%) | Alopecia, Grade 2 [4]: 1 (25.0) n (%) | Alopecia, Grade 3 [4]: 0 n (%) | Alopecia, Grade 4 [4]: 0 n (%) | Alopecia, Grade 5 [4]: 0 n (%) | Alopecia, Total [4]: 3 (75.0) n (%) | Anemia, Grade 1 [4]: 0 n (%) | Anemia, Grade 2 [4]: 2 (50.0) n (%) | Anemia, Grade 3 [4]: 0 n (%) | Anemia, Grade 4 [4]: 0 n (%) | Anemia, Grade 5 [4]: 0 n (%) | Anemia, Total [4]: 2 (50.0) n (%) | Any AE, Grade 1 [4]: 0 n (%) | Any AE, Grade 2 [4]: 0 n (%) | Any AE, Grade 3 [4]: 4 (100.0) n (%) | Any AE, Grade 4 [4]: 0 n (%) | Any AE, Grade 5 [4]: 0 n (%) | Any AE, Total [4]: 4 (100.0) n (%) | Appetite decrease, Grade 1 [4]: 1 (25.0) n (%) | Appetite decrease, Grade 2 [4]: 0 n (%) | Appetite decrease, Grade 3 [4]: 1 (25.0) n (%) | Appetite decrease, Grade 4 [4]: 0 n (%) | Appetite decrease, Grade 5 [4]: 0 n (%) | Appetite decrease, Total [4]: 2 (50.0) n (%) | Cellulitis, Grade 1 [4]: 0 n (%) | Cellulitis, Grade 2 [4]: 1 (25.0) n (%) | Cellulitis, Grade 3 [4]: 1 (25.0) n (%) | Cellulitis, Grade 4 [4]: 0 n (%) | Cellulitis, Grade 5 [4]: 0 n (%) | Cellulitis, Total [4]: 2 (50.0) n (%) | Chills, Grade 1 [4]: 2 (50.0) n (%) | Chills, Grade 2 [4]: 0 n (%) | Chills, Grade 3 [4]: 0 n (%) | Chills, Grade 4 [4]: 0 n (%)
